Measurements taken from patent EP0326134A1, “4-Amino-2,3-disubstituted-6,7-dihydro-5H-1-pyridine derivatives, process for their preparation and medicaments containing them” (NAUCHNO-ISSLEDOVATELSKY INSTITUT TEKHNOLOGII I BEZOPASNOSTI …, priority 1988, dated 1989).
pKi: −log10 of the molar value.

Legend:
[1] = Acute toxicity, single intraperitoneal injection, probit analysis (LD50); format: in vivo, Mäusen; details: mice, i.p.
From the text: Ihre akute Toxizität wurde an Mäusen (einmalige intraperitoneale Injektion) nach der Methode der Probit-Analyse nach Zichtfield, Wilcoxon, t949 untersucht. In Tabelle 2 sind die Parameter der akuten Toxizität (LDso) angegeben, die eine mäßige Toxizität der erfindungsgemäßen Verbindungen belegen.

[2] = Side effects and CNS/behaviour: tremor (TD50), sedative and m-cholinomimetic effects; format: in vivo; details: for Verhältnis TD50 zu ED50: ED50 = dose blocking the effect of Skopolamin in 50 % of the animals (passive avoidance, mice); for TD50 (Tremor): toxic dose causing tremor in 50 % of the animals
From the text: Von Interesse ist der Einfluß der erfindungsgemäßen Verbindungen auf das ZNS und das Verhalten der Tiere.

[3] = system: durch Skopolamin hervorgerufene Amnesie; assay: Dark avoidance assay (passive avoidance), scopolamine-induced amnesia; format: in vivo, Mäusen; details: mice, compound s.c. 5 min before learning, Skopolamin i.p. 30 min before
Procedure: Die Mäuse wurden dabei in den hellen Abschnitt der Kammer gegeben, wonach die Latenzzeit für den Übertritt in die dunkle Kammer, in der die Tiere einem Stromschlag von 0,5 mA ausgesetzt waren, registriert wurde. Danach erhöhte sich die Latenzzeit für den Übertritt in den dunklen Abschnitt und verringerte sich die Aufenthaltsdauer. 30 Minuten vor dem Versuch wurden den Mäusen i.p. […] Gedächtnisstörungen hervorrufendes Skopolamin als Cholinblocker injiziert. Die erfindungsgemäßen Verbindungen wurden s.c. 5 Minuten vor dem Lernvorgang injiziert. Das Skopolamin verkürzt die Latenzzeit für den Übertritt in die dunkle Kammer, die erfindungsgemäßen Verbindungen stellen jedoch die Latenzzeitwerte wie bei der Kontrollgruppe wieder her oder bedingen ein geringfügiges Überschreiten dieser Werte (siehe Tabelle 2). Gleichzeitig wird die Aufenthaltsdauer der Tiere im dunklen Abschnitt der Kammer auf 36 bis 45 Hundertstel des Ausgangswerts verringert.

[4] = system: Nerven-Muskel-Präparat von Mäusen (n.peroneus-m.extensor digitorum longus); assay: Neuromuscular transmission in isolated nerve-muscle preparation (EPP, minEPP); details: for Stimulierung der Nerven-Muskelübertragung, in % der Amplitude: EPP: EPP = Endplattenpotential
From the text: Der Einfluß der Stoffe auf die Nerven-Muskei-Übertragung wurde am isolierten Nerven-Muskel-Präparat von Mäusen (n.peroneus-m.extensor digitorum longus) (s. Bhattacharyya B. et al. "Neuromuscular blocking action of two hemicholinium-3 analogs" Europ. J. Pharmac. 146, 155-165 /1988/) untersucht, das von Lilly-Lösung perfundiert wurde, durch die man ein Gemisch von 02 und C02 leitete. […] Das Endplattenpotential (EPP) und das Endplattenminiaturpotential (minEPP) wurden mit Hilfe eines Magnetografen aufgezeichnet und danach mit dem Computer ausgewertet. Ermittelt wurden die Frequenz (f), die Amplitude (A) und die Dauer (t) der minEPP und der EPP (s. Tabelle 2).

[5] = system: isolierten Präparaten des rechten Vorhofs von Kaninchen; assay: Antiarrhythmic effect on isolated right atrium preparations (microelectrodes: AP duration, refractory period R, e/R); details: isolated right atrium of rabbit, microelectrodes
From the text: (§1) Die antiarrhythmische Wirkung der erfindungsgemäßen Verbindungen wurde in zwei Versuchsserien untersucht, und zwar an isolierten Präparaten des rechten Vorhofs von Kaninchen und mit Hilfe des Calciumchlorid-Arrhythmie-Modells an Ratten. In den Versuchen an den isolierten Präparaten des rechten Vorhofs wurden mit Hilfe von Mikroelektroden die Dauer des AP sowie der Refraktärzeit (R) und die maximale Hemmung (e) und der Parameter (e/R) untersucht, durch den die Anfälligkeit des Myokards gegenüber der Entstehung von Arrhythmien gekennzeichnet wird. In den Versuchen an Ratten wurden diesen Calciumchlorid in einer Dosierung von 250 mg/kg injiziert. Registriert wurden das Vorliegen von Kammerflimmern und die Lebensdauer der Tiere. Sämtliche erfindungsgemäßen Verbindungen üben eine mäßige antiarrhythmische Wirkung aus. Sie steigern die Refraktärzeit des Muskels und des AP um 35 bis 145 % und verringern gleichzeitig die Anfälligkeit des Myokards, ausgedrückt durch den Parameter e/R um 10 bis 80 % (s. Tabelle 4). In bezug auf diese Wirkung waren die Salze der bicyclischen Basen wirksamer als Amyridin. Bezüglich des Vermögens, die Tiere vor Kammerflimmern und vor dem Tod nach Verabreichung von 250 mg/kg Calciumchlorid zu schützen, waren diese Verbindungen ebenfalls am stärksten wirksam. Bei Verwendung des Calciumchlorid-Arrhythmie-Modells waren viele erfindungsgemäßen Verbindungen stärker wirksam als das klassische Antiarrhythmikum Chinidin (s. M.D. Ma s kovskij, Lekarstvennye sredstva, Bd. 1, S. 401, Moskau, Medicina, 1984).

[6] = system: Calciumchlorid-Arrhythmie-Modells; assay: Calcium chloride arrhythmia model (250 mg/kg): ventricular fibrillation, survival; format: in vivo, Ratten; details: rats, calcium chloride 250 mg/kg
From the text: as §1

Zahl der Krämpfe = assay: Writhing test (intraperitoneal acetic acid); format: in vivo, Mäusen; details: male mice
From the text: Die analgetische Wirkung der erfindungsgemäßen Verbindungen wurde an männlichen Mäusen anhand des "Krampf"-Tests (Writhing-Tests) unter intraperitonealer Injizierung von Essigsäure und des Hot-plate-Tests untersucht. Im ersten Falle wurde die analgetische Wirkung der Verbindungen anhand der prozentualen Verringerung der Zahl der Krämpfe ermittelt. Beim zweiten Test wurde die Schwelle der Schmerzempfindlichkeit (Ablecken der Pfoten) bestimmt. Die stärkste analgetische Wirkung der erfindungsgemäßen Verbindungen zeigte sich beim "Krampf"-Test. Dabei übertrafen die Salze der bicyclischen Basen Amyridin, aber nicht alle erfindungsgemäßen Verbindungen waren schwächer als Morphin (s. Tabelle 4).

Orientierungsaktivität = assay: Influence on orientation activity; format: in vivo, Mäusen; details: mice
From the text: Von Interesse ist der Einfluß der erfindungsgemäßen Verbindungen auf das ZNS und das Verhalten der Tiere. Alle Verbindungen zeigen eine Kombination von stimulierenden und sedativen Eigenschaften und bei höheren Dosen auch eine m-cholinomimetische Wirkung, wobei Tremor, Speichelfluß und Diarrhoe ausgelöst werden.

Wirkung von Hexenal = assay: Influence on the effect of Hexenal; format: in vivo, Mäusen; details: mice
[7] = target: T1, Acetylcholinesterase menschlicher Erythrozyten (Homo sapiens, UniProt P22303); assay: Acetylcholinesterase inhibition, spectrophotometric; format: biochemical; details: Acetylcholinesteraseinhibierung bei menschlichen Erythrozyten IK, (Mol), human erythrocyte enzyme
T1 construct: Acetylcholin-esteraseinhi-bierung bei menschlichen Erythrozyten; from tissue; host or cells: human erythrocytes
T1 sequence (P22303 other isoform, or with tags, fused parts or gaps): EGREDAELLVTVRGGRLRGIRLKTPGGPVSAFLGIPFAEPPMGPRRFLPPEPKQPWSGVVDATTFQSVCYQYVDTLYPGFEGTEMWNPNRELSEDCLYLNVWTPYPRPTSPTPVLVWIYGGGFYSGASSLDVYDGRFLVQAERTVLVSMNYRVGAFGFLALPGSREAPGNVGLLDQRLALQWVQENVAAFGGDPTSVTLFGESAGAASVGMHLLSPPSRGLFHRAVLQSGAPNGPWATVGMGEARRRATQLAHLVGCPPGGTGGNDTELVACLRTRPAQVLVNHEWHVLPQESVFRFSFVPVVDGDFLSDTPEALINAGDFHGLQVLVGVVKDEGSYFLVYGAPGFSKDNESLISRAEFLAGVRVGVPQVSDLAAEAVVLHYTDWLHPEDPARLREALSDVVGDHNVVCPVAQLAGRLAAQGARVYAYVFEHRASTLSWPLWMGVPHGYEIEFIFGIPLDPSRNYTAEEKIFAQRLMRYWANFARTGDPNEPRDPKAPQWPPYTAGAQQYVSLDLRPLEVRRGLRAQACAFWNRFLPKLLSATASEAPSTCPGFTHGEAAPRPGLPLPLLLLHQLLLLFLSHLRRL
From the text: Untersucht wurden die Wirkmechanismen der erfindungsgemäßen Verbindungen: • 1. Die Wirkung auf Acetylcholinesterase menschlicher Erythrozyten auf spektrofotometrischem Wege. • 2.

SMILES	LD50 [1] [mg/kg]	Verhältnis TD50 zu ED50 [2]	TD50 (Tremor) [2] [mg/kg]	Einfluß auf das Gedächtnis: Zahl der Tiere in %, bei denen die Skopolaminwirkung aufgehoben wurde [3] [%]	Stimulierung der Nerven-Muskelübertragung, in % der Amplitude: EPP [4] [%]	Stimulierung der Nerven-Muskelübertragung, in % der Amplitude: minEPP [4] [%]	Antiarrhythmische Wirkung: Verlängerung d. Refraktärzeit (R), in % [5] [%]	Antiarrhythmische Wirkung: Verlängerung d. Lebensdauer von Ratten an Hand des CaCl2-Arrhythmie-Modells, in % [6] [%]	Analgetische Wirkung: Abnahme d. Zahl der "Krämpfe" bei Mäusen, in % (Zahl der Krämpfe) [%]	Änderung der Orientierungsaktivität, in % (Orientierungsaktivität) [%]	Änderung der Dauer der Seitenlage, in %: Hexenal 60 mg/kg (Wirkung von Hexenal)	pKi [7]
Cc1nc2c(c(N)c1C)CCC2 [Verbindung 7]	20	9	9	80	52	95	110	150	60	-25	+32%	6.44
Cc1nc2c(c(N)c1C)CCC2 [Verbindung 14]	17	8,2	9	70	30	62	100	90	50	-7	+15%	6.46
Cc1nc2c(c(N)c1C)CCC2 [Verbindung 9]	15	7	7	70	40	80	110	140	70	-20	+30%	6.60
Cc1nc2c(c(N)c1C)CCC2 [Verbindung 12, 4-Amino-2,3-dimethyl-6,7-dihydro-5H-1-pyrindinfumarat]	15	8	7	50	32	70	110	130	90	-15	+30%	6.28
Cc1nc2c(c(N)c1C)CCC2 [Verbindung 16]	21	6,6	10	75	42	78	80	70	50	-10	+22%	6.24
Cc1nc2c(c(N)c1C)CCC2 [Verbindung 3]	17	20	7	80	55	110	115	190	90	-8	0%	6.74
Cc1nc2c(c(N)c1C)CCC2 [Verbindung 13]	18	8,5	8	65	35	72	120	100	60	-10	+25%	6.35
Cc1nc2c(c(N)c1C)CCC2 [Verbindung 5]	25	13	9	60	40	90	110	130	90	-10	0%	6.18
